Experimental data from PubChem BioAssay AID2060888 (Molecular Pharmacology Branch, DTP, NCI, 2025).
“And” between values parts separate entries of the source, which are not always exact repeats. Equal values may be shown once.

System: 695427-040-R-J1-PDC complex spheroid viability
Test: Anticancer human tumor 695427-040-R-J1-PDC patient-derived colon adenocarcinoma cell line growth inhibition [RAS]
Details: for viability, T/C: stronger effect = lower value
Outline: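 Tumour cells grown as complex spheroids with HUVEC endothelial cells and mesenchymal stem cells, treated with RAS pathway inhibitor combinations. Each agent spans half-log steps from near clinical Cmax, or 10 microM where Cmax is unknown.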

[1] = curve of first compound, second compound 0.000949 µM
[2] = curve of first compound, second compound 0.003 µM
[3] = curve of first compound, second compound 0.00949 µM
[4] = curve of first compound, second compound 0.03 µM
[5] = curve of first compound, second compound 0.0949 µM
[6] = curve of first compound, second compound 0.3 µM
[7] = second compound 0.000949 µM, first compound 0.0316 µM
[8] = second compound 0.000949 µM, first compound 0.1 µM
[9] = second compound 0.000949 µM, first compound 0.316 µM
[10] = second compound 0.000949 µM, first compound 1 µM
[11] = second compound 0.003 µM, first compound 0.0316 µM
[12] = second compound 0.003 µM, first compound 0.1 µM
[13] = second compound 0.003 µM, first compound 0.316 µM
[14] = second compound 0.003 µM, first compound 1 µM
[15] = second compound 0.00949 µM, first compound 0.0316 µM
[16] = second compound 0.00949 µM, first compound 0.1 µM
[17] = second compound 0.00949 µM, first compound 0.316 µM
[18] = second compound 0.00949 µM, first compound 1 µM
[19] = second compound 0.03 µM, first compound 0.0316 µM
[20] = second compound 0.03 µM, first compound 0.1 µM
[21] = second compound 0.03 µM, first compound 0.316 µM
[22] = second compound 0.03 µM, first compound 1 µM
[23] = second compound 0.0949 µM, first compound 0.0316 µM
[24] = second compound 0.0949 µM, first compound 0.1 µM
[25] = second compound 0.0949 µM, first compound 0.316 µM
[26] = second compound 0.0949 µM, first compound 1 µM
[27] = second compound 0.3 µM, first compound 0.0316 µM
[28] = second compound 0.3 µM, first compound 0.1 µM
[29] = second compound 0.3 µM, first compound 0.316 µM
[30] = second compound 0.3 µM, first compound 1 µM
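Note: viability read after seven days of drug exposure.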
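Throughout, for viability, T/C: 100% = DMSO vehicle control viability.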

What does the source list for CCC(CC)c1cc(NC2CCC(N)C2)n2nccc2n1 (stereo not drawn) + C=CC(=O)N1CCN(c2nc(OCC3CCCN3C)nc3c(F)c(-c4nc(N)cc(C)c4C(F)(F)F)c(Cl)cc23)C(C)C1?
IC50 (curve of first compound, second compound 0.00316 µM): 1920 nM; IC50 (curve of first compound, second compound 0.01 µM): 2070 nM; IC50 (curve of first compound, second compound 0.0316 µM): 1950 nM; IC50 (curve of first compound, second compound 0.1 µM): 1870 nM; IC50 (curve of first compound, second compound 0.316 µM): 1950 nM; IC50 (curve of first compound, second compound 1 µM): 1800 nM; viability, T/C (second compound 0.00316 µM, first compound 0.0316 µM): 93.3%; viability, T/C (second compound 0.00316 µM, first compound 0.1 µM): 94.8%; viability, T/C (second compound 0.00316 µM, first compound 0.316 µM): 109%; viability, T/C (second compound 0.00316 µM, first compound 1 µM): 106%; viability, T/C (second compound 0.00316 µM, first compound 3.16 µM): 9.52%; viability, T/C (second compound 0.00316 µM, first compound 10 µM): 12.3%; viability, T/C (second compound 0.01 µM, first compound 0.0316 µM): 105%; viability, T/C (second compound 0.01 µM, first compound 0.1 µM): 96.1%; viability, T/C (second compound 0.01 µM, first compound 0.316 µM): 119%; viability, T/C (second compound 0.01 µM, first compound 1 µM): 116%; viability, T/C (second compound 0.01 µM, first compound 3.16 µM): 15.3%; viability, T/C (second compound 0.01 µM, first compound 10 µM): 11.1%; viability, T/C (second compound 0.0316 µM, first compound 0.0316 µM): 105%; viability, T/C (second compound 0.0316 µM, first compound 0.1 µM): 99.4%; viability, T/C (second compound 0.0316 µM, first compound 0.316 µM): 105%; viability, T/C (second compound 0.0316 µM, first compound 1 µM): 101%; viability, T/C (second compound 0.0316 µM, first compound 3.16 µM): 13%; viability, T/C (second compound 0.0316 µM, first compound 10 µM): 11.9%; viability, T/C (second compound 0.1 µM, first compound 0.0316 µM): 100%; viability, T/C (second compound 0.1 µM, first compound 0.1 µM): 98.2%; viability, T/C (second compound 0.1 µM, first compound 0.316 µM): 116%; viability, T/C (second compound 0.1 µM, first compound 1 µM): 94.4%; viability, T/C (second compound 0.1 µM, first compound 3.16 µM): 13.1%; viability, T/C (second compound 0.1 µM, first compound 10 µM): 12.1%; viability, T/C (second compound 0.316 µM, first compound 0.0316 µM): 89.4%; viability, T/C (second compound 0.316 µM, first compound 0.1 µM): 95.8%; viability, T/C (second compound 0.316 µM, first compound 0.316 µM): 105%; viability, T/C (second compound 0.316 µM, first compound 1 µM): 111%; viability, T/C (second compound 0.316 µM, first compound 3.16 µM): 12.4%; viability, T/C (second compound 0.316 µM, first compound 10 µM): 14.7%; viability, T/C (second compound 1 µM, first compound 0.0316 µM): 89.9%; viability, T/C (second compound 1 µM, first compound 0.1 µM): 97.2%; viability, T/C (second compound 1 µM, first compound 0.316 µM): 105%; viability, T/C (second compound 1 µM, first compound 1 µM): 90.9%; viability, T/C (second compound 1 µM, first compound 3.16 µM): 7.42%; viability, T/C (second compound 1 µM, first compound 10 µM): 13.8%

Which results are given for C=CC(=O)Nc1cc(Nc2nccc(-c3cn(C)c4ccccc34)n2)c(OC)cc1N(C)CCN(C)C + CCn1c(-c2cc(N3CCN(C)CC3)cnc2C(C)OC)c2c3cc(ccc31)-c1csc(n1)CC(NC(=O)C1CC1C)C(=O)N1CCCC(N1)C(=O)OCC(C)(C)C2?
IC50 [1]: 523 nM; IC50 [2]: 363 nM; IC50 [3]: 147 nM; IC50 [4]: 44.3 nM; IC50 [5]: < 3.16 nM; IC50 [6]: < 3.16 nM; viability, T/C (second compound 0.000949 µM, first compound 0.00316 µM): 104%; viability, T/C (second compound 0.000949 µM, first compound 0.01 µM): 91.1%; viability, T/C [7]: 75.1%; viability, T/C [8]: 82.8%; viability, T/C [9]: 58.1%; viability, T/C [10]: 37.1%; viability, T/C (second compound 0.003 µM, first compound 0.00316 µM): 103%; viability, T/C (second compound 0.003 µM, first compound 0.01 µM): 88.7%; viability, T/C [11]: 68%; viability, T/C [12]: 74%; viability, T/C [13]: 52.3%; viability, T/C [14]: 35.9%; viability, T/C (second compound 0.00949 µM, first compound 0.00316 µM): 91.7%; viability, T/C (second compound 0.00949 µM, first compound 0.01 µM): 78.3%; viability, T/C [15]: 68.9%; viability, T/C [16]: 54.4%; viability, T/C [17]: 41.5%; viability, T/C [18]: 24.6%; viability, T/C (second compound 0.03 µM, first compound 0.00316 µM): 58.9%; viability, T/C (second compound 0.03 µM, first compound 0.01 µM): 60.1%; viability, T/C [19]: 51.3%; viability, T/C [20]: 42.8%; viability, T/C [21]: 36.9%; viability, T/C [22]: 21.2%; viability, T/C (second compound 0.0949 µM, first compound 0.00316 µM): 46.6%; viability, T/C (second compound 0.0949 µM, first compound 0.01 µM): 45.7%; viability, T/C [23]: 34.2%; viability, T/C [24]: 36.9%; viability, T/C [25]: 24.4%; viability, T/C [26]: 17.3%; viability, T/C (second compound 0.3 µM, first compound 0.00316 µM): 33.3%; viability, T/C (second compound 0.3 µM, first compound 0.01 µM): 34.9%; viability, T/C [27]: 29.7%; viability, T/C [28]: 30.1%; viability, T/C [29]: 26.9%; viability, T/C [30]: 16.1%

What does the source list for CC1(C)CCC(Nc2ncc(C(F)(F)F)c(-c3c[nH]c4c(P(C)(C)=O)c(C#N)ccc34)n2)CN1 (stereo not drawn)?
viability, T/C (compound 0.000949 µM): 95.8% [middle of 4 runs]; viability, T/C (compound 0.003 µM): 89.1% [middle of 4 runs]; viability, T/C (compound 0.00949 µM): 92.5% and 92.7% and 87.3% (2×); viability, T/C (compound 0.03 µM): 87.3% [middle of 4 runs]; viability, T/C (compound 0.0949 µM): 87.8% [middle of 4 runs]; viability, T/C (compound 0.3 µM): 76.5% [middle of 4 runs]; IC50 (curve of compound): > 300 nM

For CC1(O)CCCC1n1c(=O)c(C(F)F)cc2cnc(NC3CCN(S(C)(=O)=O)CC3)nc21 (stereo not drawn) + CCn1c(-c2cc(N3CCN(C)CC3)cnc2C(C)OC)c2c3cc(ccc31)-c1csc(n1)CC(NC(=O)C1CC1C)C(=O)N1CCCC(N1)C(=O)OCC(C)(C)C2, which IC50 [1] is on record?
Its IC50 is > 10000 nM.

And the IC50 [2]?
The IC50 was > 10000 nM.

And the IC50 [3]?
The IC50 was > 10000 nM.

What about the IC50 [4] of the same compound?
The IC50 was 4610 nM.

What about the IC50 [5] of the same compound?
Its IC50 is < 31.6 nM.

What about the IC50 [6] of the same compound?
The IC50 was < 31.6 nM.

And the viability, T/C [7]?
Its viability, T/C is 112%.

And the viability, T/C [8]?
Its viability, T/C is 74.6%.

What about the viability, T/C [9] of the same compound?
The viability, T/C was 93.8%.

And the viability, T/C [10]?
Its viability, T/C is 105%.

What about the viability, T/C (second compound 0.000949 µM, first compound 3.16 µM) of the same compound?
Its viability, T/C is 114%.

What about the viability, T/C (second compound 0.000949 µM, first compound 10 µM) of the same compound?
The viability, T/C was 74.5%.

What about the viability, T/C [11] of the same compound?
The viability, T/C was 87.3%.

And the viability, T/C [12]?
Its viability, T/C is 92.8%.

What about the viability, T/C [13] of the same compound?
Its viability, T/C is 91.8%.

And the viability, T/C [14]?
The viability, T/C was 92.7%.

What about the viability, T/C (second compound 0.003 µM, first compound 3.16 µM) of the same compound?
The viability, T/C was 109%.

And the viability, T/C (second compound 0.003 µM, first compound 10 µM)?
Its viability, T/C is 71%.

What about the viability, T/C [15] of the same compound?
Its viability, T/C is 95.7%.

What about the viability, T/C [16] of the same compound?
Its viability, T/C is 80.8%.

What about the viability, T/C [17] of the same compound?
Its viability, T/C is 85.2%.

What about the viability, T/C [18] of the same compound?
Its viability, T/C is 78.3%.

And the viability, T/C (second compound 0.00949 µM, first compound 3.16 µM)?
Its viability, T/C is 81.8%.

What about the viability, T/C (second compound 0.00949 µM, first compound 10 µM) of the same compound?
Its viability, T/C is 52%.

What about the viability, T/C [19] of the same compound?
Its viability, T/C is 62.4%.

What about the viability, T/C [20] of the same compound?
Its viability, T/C is 71.5%.

What about the viability, T/C [21] of the same compound?
The viability, T/C was 59.1%.

What about the viability, T/C [22] of the same compound?
Its viability, T/C is 57.1%.

What about the viability, T/C (second compound 0.03 µM, first compound 3.16 µM) of the same compound?
The viability, T/C was 59.8%.

And the viability, T/C (second compound 0.03 µM, first compound 10 µM)?
The viability, T/C was 32.7%.

And the viability, T/C [23]?
Its viability, T/C is 44.2%.

What about the viability, T/C [24] of the same compound?
The viability, T/C was 42.1%.

What about the viability, T/C [25] of the same compound?
Its viability, T/C is 50.3%.

What about the viability, T/C [26] of the same compound?
Its viability, T/C is 50.8%.

And the viability, T/C (second compound 0.0949 µM, first compound 3.16 µM)?
Its viability, T/C is 50.9%.

What about the viability, T/C (second compound 0.0949 µM, first compound 10 µM) of the same compound?
Its viability, T/C is 25.6%.

And the viability, T/C [27]?
Its viability, T/C is 40.5%.

And the viability, T/C [28]?
The viability, T/C was 42%.

And the viability, T/C [29]?
The viability, T/C was 41.2%.

What about the viability, T/C [30] of the same compound?
Its viability, T/C is 36.5%.

What about the viability, T/C (second compound 0.3 µM, first compound 3.16 µM) of the same compound?
Its viability, T/C is 44.2%.

What about the viability, T/C (second compound 0.3 µM, first compound 10 µM) of the same compound?
Its viability, T/C is 25.2%.
